Reference: patent US7781580B2, “Stilbene derivatives as new cancer therapeutic agents” (Virginia Commonwealth University, priority 2007, dated 2010)

Experiments:
[1] = tested on: UCI101 ovarian cancer cells (xenograft); assay: UCI101 xenograft in nude mice; format: in vivo; settings: mouse, in vivo
Description: (a) In vitro sensitivity of UCI101 cells toward three potential stilbene prodrugs, 5a-c, was tested in 96-well plates using Alamar Blue™ assays to determine cell growth inhibition. […] (b) 5b induces cell cycle change and apoptosis in UCI101 cells. Cells were incubated with 5b at 1, 3, 10 μM for 16 hours followed by PI staining and flow cytometry analysis. A subG0/1 population, representing apoptotic cells, appeared along with a decrease of the G1/G2 ratio after cells were treated with 3 μM 5b. Higher concentration (10 μM) of 5b completely killed cells, as was the case with stilbene 4a at […]. (c) Cells treated with stilbene 4a and 5b were stained with phospho-histone 3B, a mitotic marker. The positive signals of phospho-histone 3B were shown in green and nuclei were stained with DAPI in blue. […] (d) In vivo efficacy of 5b compared with stilbene 4a. Nude mice were injected with UCI101 ovarian cancer cells and treated with 7 doses of 5b,c or stilbene 4a every 2-3 days. Tumor volume was calculated and plotted against days.
We next tested whether 5b could be converted into stilbene 4a in circulation. […] Blood was collected at 20, 60 and 240 min after injection for spot check of stilbene 4a level in serum. […] The in vivo efficacy of 5b and 5c was compared to stilbene 4a in a pilot study using 5 mice in each group.

[2] = tested on: SNU423 hepatocellular carcinoma cells; assay: Alamar Blue cell growth inhibition, SNU423; format: cell-based
Outline: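 Cells at 50% confluence were treated for 48 h in triplicate with 0-10 μM compound or 0.1% DMSO vehicle. Alamar Blue was added at 1/10 volume for 2 h, and absorbance at 570 and 600 nm gave % growth via the manufacturer's extinction-coefficient formula relative to vehicle controls.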

COc1cc(/C=C\c2ccc(OC)c(N)c2)cc(OC)c1 [4a, (Z)-5-[2-(3,5-Dimethoxy-phenyl)-vinyl]-2-methoxy-phenylamine]
mouse weight [1]: did not show any significant change
relative potency ([2]; SNU423): much more potent than the trans counterparts
effective concentration, blocking cell proliferation ([2]; SNU423, 48 hours): 0.03 µM
